# Measured values as given in patent publication US12264156B2, “Compounds and pharmaceutical compositions thereof for the treatment of diseases” (GALAPAGOS NV, priority 2018, dated 2025).
# Assays:
# mouse CIA model = test: Collagen induced arthritis (CIA) model; type: in vivo; set-up: key: per paw 0 = none to 4 = maximal; sum of 4 paws, max 16
# Protocol: Completed Freund's adjuvant (CFA) and incomplete Freund's adjuvant (IFA) were purchased from Difco. Bovine collagen type II (CII), lipopolysaccharide (LPS), and Enbrel® (etanercept) were obtained from Chondrex (L'Isle d'Abeau, France); Sigma (P4252, L'Isle d'Abeau, France), Whyet (25 mg injectable syringe, France), respectively. All other reagents used were of reagent grade and all solvents were of analytical grade.
# DBA1/J mice (male, 7-8 weeks old) were obtained from Charles River Laboratories (Écully, France). Mice were kept on a 12 h light/dark cycle. Temperature was maintained at 22° C., and food and water were provided ad libitum.
# One day before the experiment, CII solution (2 mg/mL) was prepared with 0.05 M acetic acid and stored at 4° C. Just before the immunization, equal volumes of adjuvant […] and CII were mixed by a homogenizer in a pre-cooled glass bottle in an ice water bath. Extra adjuvant and prolonged homogenization may be required if an emulsion is not formed. 0.2 mL of the emulsion was injected intradermally at the base of the tail of each mouse on day 1, a second booster intradermal injection (CII solution at 2 mg/mL in […]) was performed on […]. This immunization method was modified from published methods (Jou et al. 2005; Sims et al. 2004).
# The therapeutic effects of the compounds were tested in the mouse CIA model. Mice were randomly divided into equal groups and each group contained 10 mice. All mice were immunized on day 1 and boosted on day 21. The negative control group was treated with vehicle (MC 0.5%) and the positive control group with Enbrel® (10 mg/kg, 3× week., sc). A compound of interest was typically tested at 3 doses per os (p.o.). At day 32, randomization between groups was performed with respect with clinical score and animals were therapeutically treated regarding their group until day 47. Body weight and clinical score, were recorded at least twice a week.
# Arthritis is scored according to the method of Khachigian 2006, Lin et al 2007 and Nishida et al. 2004 (Khachigian 2006; Lin et al. 2007; Nishida et al. 2004). The swelling of each of the four paws is ranked with the arthritic score as follows: 0-no symptoms; 1-mild, but definite redness and swelling of one type of joint such as the ankle or wrist, or apparent redness and swelling limited to individual digits, regardless of the number of affected digits; 2-moderate redness and swelling of two or more types of joints; 3-severe redness and swelling of the entire paw including digits; 4-maximally inflamed limb with involvement of multiple joints (maximum cumulative clinical arthritis score 16 per animal) (Nishida et al. 2004).
# mouse CAIA model = test: Murine collagen-antibody induced arthritis model (CAIA); type: in vivo; conditions: 60 mg/kg p.o. b.i.d.
# Protocol: ArthritoMabrm antibody cocktail for inducing arthritis and lipopolysaccharide (LPS) from Escherichia Coli serotype O55:B5 were purchased from MD Biosciences (OakdalMNnn., USA, Cat #CIA-MAB-50); PBS 1× (GIBCO, Cat #140190-086) was obtained from ThermoFisher Scientific, and Enbrel® (etanercept) was purchased from Chondrex (L'Isle d'Abeau, France, Cat #3771910).
# Five to seven week old BALBc female mice were obtained from Janvier Labs (Le Genest-Saint-Isle, France). Mice were kept on a 12 h light/dark cycle. Temperature was maintained at 22° C., food and water were provided ad libitum.
# The therapeutic effects of the compounds of the invention were tested in the mouse CAIA model (MD Biosciences 2008; Nandakumar et al. 2003). At day 1 (D1), mice were randomly divided into equal groups containing 10 mice. […] Bodyweight and clinical score of each mouse was assessed every day except the weekend until the end of the study. […] For histology readouts, right and left hind paws were individually collected in vials (25 mL minimum) filled with 4% buffered formaldehyde for a minimum of 24 h to a maximum of 4 days at RT.
# Arthritis was scored according to the method of Khachigian 2006; Lin et al 2007 and Nishida et al. 2004 (Khachigian 2006; Lin et al. 2007; Nishida et al. 2004). […]
smiles,measurement,setting,value
"COc1cc(-c2cnc3cc(OCCN4CCOCC4)ccn23)cc2c1C(=O)N(CC(F)(F)F)CC2 [Cpd 88, 8-methoxy-6-[7-(2-morpholinoethoxy)imidazo [1,2-a]pyridin-3-yl]-2-(2,2,2-trifluoroethyl)-3,4-dihydroisoquinolin-1-one]",CIA clinical score,"mouse CIA model; 10 mg/kg b.i.d. p.o., day 32",2.7
same,CIA clinical score,"mouse CIA model; 10 mg/kg b.i.d. p.o., day 33",3.1
same,CIA clinical score,"mouse CIA model; 10 mg/kg b.i.d. p.o., day 35",3.6
same,CIA clinical score,"mouse CIA model; 10 mg/kg b.i.d. p.o., day 36",4.1
same,CIA clinical score,"mouse CIA model; 10 mg/kg b.i.d. p.o., day 39",4.4
same,CIA clinical score,"mouse CIA model; 10 mg/kg b.i.d. p.o., day 40",4.8
same,CIA clinical score,"mouse CIA model; 10 mg/kg b.i.d. p.o., day 41",4.5
same,CIA clinical score,"mouse CIA model; 10 mg/kg b.i.d. p.o., day 42",4.9
same,CIA clinical score,"mouse CIA model; 10 mg/kg b.i.d. p.o., day 43",5.1
same,CIA clinical score,"mouse CIA model; 10 mg/kg b.i.d. p.o., day 46",8.0
same,CIA clinical score,"mouse CIA model; 10 mg/kg b.i.d. p.o., day 47",7.9
same,CIA clinical score,"mouse CIA model; 30 mg/kg b.i.d. p.o., day 32",2.7
same,CIA clinical score,"mouse CIA model; 30 mg/kg b.i.d. p.o., day 33",2.7
same,CIA clinical score,"mouse CIA model; 30 mg/kg b.i.d. p.o., day 35",3.4
same,CIA clinical score,"mouse CIA model; 30 mg/kg b.i.d. p.o., day 36",3.8
same,CIA clinical score,"mouse CIA model; 30 mg/kg b.i.d. p.o., day 39",4.5
same,CIA clinical score,"mouse CIA model; 30 mg/kg b.i.d. p.o., day 40",4.7
same,CIA clinical score,"mouse CIA model; 30 mg/kg b.i.d. p.o., day 41",4.7
same,CIA clinical score,"mouse CIA model; 30 mg/kg b.i.d. p.o., day 42",5.2
same,CIA clinical score,"mouse CIA model; 30 mg/kg b.i.d. p.o., day 43",4.6
same,CIA clinical score,"mouse CIA model; 30 mg/kg b.i.d. p.o., day 46",6.1
same,CIA clinical score,"mouse CIA model; 30 mg/kg b.i.d. p.o., day 47",5.4
same,CIA clinical score,"mouse CIA model; 60 mg/kg b.i.d. p.o., day 32",2.7
same,CIA clinical score,"mouse CIA model; 60 mg/kg b.i.d. p.o., day 33",2.7
same,CIA clinical score,"mouse CIA model; 60 mg/kg b.i.d. p.o., day 35",3.1
same,CIA clinical score,"mouse CIA model; 60 mg/kg b.i.d. p.o., day 36",2.8
same,CIA clinical score,"mouse CIA model; 60 mg/kg b.i.d. p.o., day 39",3.3
same,CIA clinical score,"mouse CIA model; 60 mg/kg b.i.d. p.o., day 40",3.0
same,CIA clinical score,"mouse CIA model; 60 mg/kg b.i.d. p.o., day 41",2.7
same,CIA clinical score,"mouse CIA model; 60 mg/kg b.i.d. p.o., day 42",2.8
same,CIA clinical score,"mouse CIA model; 60 mg/kg b.i.d. p.o., day 43",2.3
same,CIA clinical score,"mouse CIA model; 60 mg/kg b.i.d. p.o., day 46",2.8
same,CIA clinical score,"mouse CIA model; 60 mg/kg b.i.d. p.o., day 47",2.5
same,Area Under the Curve (AUC) of clinical score vs. vehicle group,mouse CAIA model,statistically significant reduction of Area Under the Curve (AUC) of clinical score
